Test results reported in ChEMBL document CHEMBL1126088, “Conformational analysis of dopamine D-2 receptor antagonists of the benzamide series in relation to a recently proposed D-2 receptor-interaction model” (J Med Chem, 1992).

Assay: Effective dose of the compound
Format: functional
With `COc1cc(N)c(Cl)cc1C(=O)NC1CCN2CC(c3ccccc3)CC2C1` (stereo not drawn) the ED50 was 0.024 mg/kg.
With `COc1cc(N)c(Cl)cc1C(=O)NC1CCN(Cc2ccccc2)CC1` [CLEBOPRIDE] the ED50 was 0.037 mg/kg.
In the case of `CCN(CC)CCNC(=O)c1cc(Cl)c(N)cc1OC` [METOCLOPRAMIDE], the ED50 is reported as 0.75 mg/kg.
